Entries after “also recorded” stand apart in the source; their conditions may differ. Square brackets hold non-standard residues; d marks the D form. Ends that are not written are not given here.
Experiments:
[1] = tested on: plasma membrane of several mammalian cell types; conditions: energy-independent manner; cited from earlier work
vitiligo mice = assay: Progressive depigmentation in the pelage of the vitiligo mouse model; format: in vivo; conditions: 0.25 mg/kg/day for four weeks before plucking, 2 weeks after plucking dorsal hairs, vs untreated
Method: Vitiligo mice described in Lerner et al., Journal of Investigative Dermatology, 87: 299-304 (1986) are obtained. Vitiligo mice are subdivided into 2 groups. Group I mice are administered a daily dose of 0.25 mg/kg/day of D-Arg-2′,6′-Dmt-Lys-Phe-NH2 for four weeks before plucking dorsal hairs whereas Group II vitiligo mice are treated with drug vehicle before plucking. The regrowth of amelanotic hairs is monitored via light microscopy.

[2] = tested on: adoptive transfer mouse model of vitiligo; assay: Epidermal depigmentation in an adoptive transfer mouse model of vitiligo; format: in vivo; conditions: adoptive transfer vitiligo mice, 0.25 mg/kg/day for four weeks; tail, nose, footpad; vs untreated
Method: Vitiligo mice described in Harris et al., Journal of Investigative Dermatology, 132: 1869-1876 (2012) are obtained. This adoptive transfer mouse model of vitiligo recapitulates the human condition by inducing epidermal depigmentation while sparing the hair. These mice are subdivided into 2 groups. Group I mice are administered a daily dose of 0.25 mg/kg/day of D-Arg-2′,6′-Dmt-Lys-Phe-NH2 for four weeks whereas Group II vitiligo mice are treated with drug vehicle and serve as controls. The loss of pigmentation in epidermal tissues such as the tail, nose and footpad is monitored via light microscopy.

mu-opioid receptor = mu-opioid receptor (Homo sapiens, UniProt P35372); conditions: stated in the description, no test described; cited from earlier work
[3] = tested on: melanocytes from human subjects diagnosed with vitiligo (VHM); assay: Mitochondrial membrane potential of melanocytes (JC-1 probe); format: cell-based; conditions: peptide at 1.5 μM and 2.0 μM added each day for 7 days, vs 0 μM and untreated NHM
Method: Cultured melanocytes from each patient were divided into three groups, wherein each group was treated with D-Arg-2′,6′-Dmt-Lys-Phe-NH2 at 0 μM, 1.5 μM, and 2 μM. D-Arg-2′,6′-Dmt-Lys-Phe-NH2 added to the growth media each day for 7 days. After 7 days, mitochondrial membrane potential (ΔΨm) of the melanocytes were assessed with a JC-1 probe (see, e.g., JC-1 Mitochondrial Membrane Potential Assay Kit, Cayman Chemical Co., Ann Arbor, Mich.).

[4] = tested on: melanocytes from human subjects diagnosed with vitiligo (VHM); assay: ATP production of melanocytes (fluorimetric determination); format: cell-based; conditions: 2 μM added each day for 3 days, vs untreated (0 μM)
Method: Melanocytes were isolated and cultured from two human patients diagnosed with vitiligo (VHM). Cultured melanocytes from each patient were divided into two groups, wherein each group was treated with D-Arg-2′,6′-Dmt-Lys-Phe-NH2 at 0 μM and 2 μM. D-Arg-2′,6′-Dmt-Lys-Phe-NH2 was added to the growth media each day for 3 days. After 3 days, the melanocytes were lysed and ATP levels were measures by fluorimetric determination. Each assay was performed in triplicate.

[5] = tested on: autologous vitiligo skin explants; assay: T-cell accumulation and cytotoxic activity in autologous vitiligo skin explants; format: in vivo, human; conditions: vitiligo patients, 0.25 mg/kg/day for twelve weeks, perilesional T-cells co-cultured with autologous skin explants 2 days
Method: Active vitiligo patients are subdivided into 2 groups. Group I subjects are administered a daily dose of 0.25 mg/kg/day of D-Arg-2′,6′-Dmt-Lys-Phe-NH2 for twelve weeks whereas Group II vitiligo subjects are treated with drug vehicle and serve as controls. Punch-biopsies are obtained flanking the depigmented macule from Group I and Group II vitiligo subjects. These biopsies are cultured to promote T-cell growth according to the procedures described in Van Den Boom et al., Journal of Investigative Dermatology, 129: 2220-2232 (2009). The ability of these perilesional T-cells to infiltrate and actively kill melanocytes within the skin tissue microenvironment is tested using skin explant assays. Autologous skin explants are generated according to the procedures described in Van Den Boom et al., Journal of Investigative Dermatology, 129: 2220-2232 (2009). Perilesional T-cells are co-cultured with normally pigmented autologous skin explants for 2 days. T-cells are allowed to infiltrate the skin explants and migrate toward the melanocytes located at the dermal-epidermal junction. Skin explant cryosections are analyzed for the presence of infiltrated T-cells, melanocytes, and apoptosis by immunohistochemistry or immunofluorescence as described in Van Den Boom et al., Journal of Investigative Dermatology, 129: 2220-2232 (2009).

Chain of mu-opioid receptor (P35372 whole entry, species assumed): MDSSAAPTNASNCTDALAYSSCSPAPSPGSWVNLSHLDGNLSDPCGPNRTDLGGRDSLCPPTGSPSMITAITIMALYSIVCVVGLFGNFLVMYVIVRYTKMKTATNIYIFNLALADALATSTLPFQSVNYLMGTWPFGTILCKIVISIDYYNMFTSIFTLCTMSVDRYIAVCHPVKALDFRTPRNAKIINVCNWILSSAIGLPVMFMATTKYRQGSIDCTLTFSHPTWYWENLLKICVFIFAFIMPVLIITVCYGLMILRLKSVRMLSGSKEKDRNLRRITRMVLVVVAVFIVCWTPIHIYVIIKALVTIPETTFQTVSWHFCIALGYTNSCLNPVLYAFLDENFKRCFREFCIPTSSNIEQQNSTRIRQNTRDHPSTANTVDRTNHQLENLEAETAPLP

2′,6′-Dmt-D-Arg-Phe-Lys-NH2
penetration of the plasma membrane [1]: readily penetrates the plasma membrane

D-Arg-2′,6′-Dmt-Lys-Phe-NH2
rate of progressive depigmentation (vitiligo mice): reduced rate of progressive depigmentation
severity of depigmentation in epidermal tissues [2]: reduced severity of depigmentation
mu-opioid receptor agonist activity (mu-opioid receptor): does not have mu-opioid receptor agonist activity
mitochondrial membrane potential (ΔΨm) of VHM melanocytes [3]: returned the mitochondrial membrane potential of the VHM melanocytes to levels found in untreated NHM melanocytes; also recorded: increased the mitochondrial membrane potential
mitochondrial membrane potential (ΔΨm) of VHM melanocytes ([3]; listed as D-Arg-2′6′-Dmt-Lys-Phe-NH2): nearly doubled
ATP production of VHM melanocytes [4]: elevated ATP production levels; also recorded: increased the ATP production
melanocyte survival rates in skin explants [5]: greater than untreated vitiligo explants

F[dR]FK-NH2
mu-opioid receptor agonist activity (mu-opioid receptor): does not have mu-opioid receptor agonist activity

Tyr-D-Arg-Phe-Lys-NH2
mu-opioid receptor agonist activity (mu-opioid receptor): has mu-opioid receptor agonist activity

— patent US9943563B2, “Compositions and methods for treating vitiligo” (Stealth Peptides International, Inc., priority 2013, dated 2018)
